Laboratory results taken from PMC4474874, “Effect of JAK Inhibitors on Release of CXCL9, CXCL10 and CXCL11 from Human Airway Epithelial Cells” (PLoS ONE, 2015).

Legend:
[1] = test system: human primary airway epithelial cells; experiment: IL-6 release from IFNγ + TNFα-stimulated human primary airway epithelial cells; assay type: cell-based; conditions: IFNγ + TNFα
Protocol: (§1) In order to determine whether any of the inhibitory effects of the JAK inhibitors could be attributed to cell death, MTT assays were performed at the end of every experiment. […] In order to address this issue, the levels of IL-6 released from cells stimulated with IFNγ + TNFα were measured.

BEAS-2B cells [2] = experiment: IL-6 release from IFNγ + TNFα-stimulated BEAS-2B cells; assay type: cell-based, human
Protocol: as §1

[3] = test system: human primary airway epithelial cells; experiment: Release of CXCL9, CXCL10 and CXCL11 from human primary airway epithelial cells (ELISA); assay type: cell-based; conditions: human primary airway epithelial cells, IFNγ or IFNγ+TNFα
Protocol: (§2) BEAS-2B cells (catalogue number CRL-9609) were purchased directly from American Type Culture Collection (Rockville, MD). Keratinocyte serum-free medium (K-SFM), bovine pituitary extract (BPE), and recombinant human epidermal growth factor (EGF) were purchased from Invitrogen (Paisley, UK). BEAS-2B cells were cultured in K-SFM containing 50 μg/ml BPE and 5 ng/ml EGF at 37°C in a humidified atmosphere comprising 5% (v/v) CO2 in air. Cells were cultured as monolayers in growth factor-free media for 24 h prior to stimulation. Human primary airway epithelial cells were cultured as monolayers from bronchial brushings from both male and female subjects (Table 1) and cultured in LHC-9 media (Invitrogen, Paisley, UK) in collagen (1% w/v) coated flasks. Samples were obtained from non-smokers, smokers and patients with COPD. […] The subjects were matched for age and smokers and COPD patients for smoking history (Table 1). All subjects gave informed written consent and the study was approved by the NRES London-Chelsea Research Ethics committee, study number 09/H0801/85.
(§3) Cell-free supernatants were removed 20h post-stimulation and assayed for CXCL9, CXCL10 and CXCL11 using Duoset ELISA kits (R & D Systems Europe, Abingdon, UK) according to the manufacturer’s instructions. The detection limits of these assays are 62pg/ml, 31pg/ml, and 7.8 pg/ml respectively.
(§4) Data are presented as mean ± SEM of ‘n’ independent determinations. Concentration-response curves were analysed by least-squares, non-linear iterative regression with the ‘Graphpad Prism’ curve fitting program (GraphPad software, San Diego, USA) and IC50 values were subsequently interpolated from curves of best-fit. Statistical differences were determined using the Kruskal–Wallis test followed by Dunn's multiple comparison test or a Wilcoxon signed rank test as appropriate. Values of P<0.05 were considered significant.
Media was harvested and the concentrations of CXCL9 (panels a and d), CXCL10 (panels b and e) and CXCL11 (panels c and f) were measured by ELISA. Data are presented as mean ± SEM, n = 10–13.

BEAS-2B cells [4] = experiment: Release of CXCL9, CXCL10 and CXCL11 from BEAS-2B cells (ELISA), inhibitors added 1h before stimulus; assay type: cell-based, human; conditions: BEAS-2B
Protocol: as §2, §3, §4
Media was harvested and the concentrations of CXCL9 (panels a and d), CXCL10 (panels b and e) and CXCL11 (panels c and f) were measured by ELISA. Data are presented as mean±SEM, n = 7–8.

BEAS-2B cells [5] = experiment: mRNA expression of CXCL9, CXCL10 and CXCL11 in BEAS-2B cells (Taqman RT-PCR); assay type: cell-based, human; conditions: BEAS-2B, 10^-6M, IFNγ or IFNγ + TNFα
Protocol: Total RNA was extracted from cells and reverse transcribed, as described previously. Gene expression was determined by Taqman real-time PCR on a 7500 Real Time PCR system (Applied Biosystems, Life Technologies Ltd, Paisley, UK) using PCR Master Mix Reagent and ‘assays on demand’ (Applied Biosystems). HPRT1 gene expression was used as the housekeeping gene and data presented as δδCT relative to baseline.
Gene expression of CXCL9 (panels a and b), CXCL10 (panels c and d) and CXCL11 (panels e and f) were quantified by Taqman RT-PCR. Data are presented as fold change form stimulus ± SEM; n = 3 where 1 indicates the level of mRNA induced by IFNγ or IFNγ + TNFα in the absence of inhibitors.

SMILES: C[C@@H]1C[C@H]2[C@@H]3CCC4=CC(=O)C=C[C@]4(C)[C@@]3(F)[C@@H](O)C[C@]2(C)[C@@]1(O)C(=O)CO [dexamethasone]
- IC50 ([1]; Homo sapiens, Epithelial cell): 11 ± 7 nM
- suppression of IL-6 release [1]: 50–70%
- suppression of IL-6 release (BEAS-2B cells [2]): 50–70%
- IC50 (BEAS-2B cells [2]; Homo sapiens): 16 ± 8 nM
- effect on CXCR3 chemokine release [3]: did not suppress
- effect on CXCL9 and CXCL11 release (BEAS-2B cells [4]; IFNγ or IFNγ+TNFα): very limited effect
- maximal inhibitory effect on release of CXCL10 (BEAS-2B cells [4]; IFNγ-stimulated): ~ 50%
- inhibitory effect on release of CXCL10 (BEAS-2B cells [4]; stimulation with IFNγ and TNFα together): none
- effect on gene transcription of CXCL9, CXCL10 and CXCL11 (BEAS-2B cells [5]): no effect on gene transcription
